Source: ChEMBL document CHEMBL4715742, “Design, synthesis and cytotoxic activities of novel 2,5-diketopiperazine derivatives” (Eur J Med Chem, 2016)
pIC50: −log10 of the molar value.

Assays:
Assay type in all cases: functional, cell-based; call rule not given here
[1] = test system: K562; assay: Cytotoxicity against human K562 cells assessed as reduction in cell viability measured after 72 hrs by CCK8 assay; details: for IC50: k562; for pIC50: Homo sapiens, K562, 72 h, read-out: IC50
[2] = test system: DU-145; assay: Cytotoxicity against human DU-145 cells assessed as reduction in cell viability measured after 72 hrs by CCK8 assay; details: for IC50: du-145; for pIC50: Homo sapiens, DU-145, 72 h, read-out: IC50
[3] = test system: MCF7; assay: Cytotoxicity against human MCF7 cells assessed as reduction in cell viability measured after 72 hrs by CCK8 assay; details: for IC50: mcf7; for pIC50: Homo sapiens, MCF7, 72 h, read-out: IC50
[4] = test system: HeLa; assay: Cytotoxicity against human HeLa cells assessed as reduction in cell viability measured after 72 hrs by CCK8 assay; details: for IC50: hela; for pIC50: Homo sapiens, HeLa, 72 h, read-out: IC50
[5] = test system: U-937; assay: Cytotoxicity against human U-937 cells assessed as reduction in cell viability measured after 72 hrs by CCK8 assay; details: for IC50: u-937; for pIC50: Homo sapiens, U-937, 72 h, read-out: IC50
[6] = test system: HL-60; assay: Cytotoxicity against human HL-60 cells assessed as reduction in cell viability measured after 72 hrs by CCK8 assay; details: for IC50: hl-60; for pIC50: Homo sapiens, HL-60, 72 h, read-out: IC50
[7] = test system: A549; assay: Cytotoxicity against human A549 cells assessed as reduction in cell viability measured after 72 hrs by CCK8 assay; details: for IC50: a549; for pIC50: Homo sapiens, A549, 72 h, read-out: IC50
[8] = test system: HT-29; assay: Cytotoxicity against human HT-29 cells assessed as reduction in cell viability measured after 72 hrs by CCK8 assay; details: for IC50: ht-29; for pIC50: Homo sapiens, HT-29, 72 h, read-out: IC50

SMILES	IC50 [1]	IC50 [2]	IC50 [3]	IC50 [4]	IC50 [5]	IC50 [6]	IC50 [7]	IC50 [8]	pIC50 [1]	pIC50 [2]	pIC50 [3]	pIC50 [4]	pIC50 [5]	pIC50 [6]	pIC50 [7]	pIC50 [8]
C=CCn1c(=O)/c(=C/CCCCC)[nH]c(=O)/c1=C/c1cccc(OC)c1	Not Active	Not Active	Not Active	Not Active	Not Active	Not Active	Not Active	Not Active	–	–	–	–	–	–	–	–
C=CCn1c(=O)/c(=C/CCCCCCCCCC)[nH]c(=O)/c1=C/c1ccccc1OC	Not Active	Not Active	Not Active	Not Active	Not Active	Not Active	Not Active	Not Active	–	–	–	–	–	–	–	–
C=CCn1c(=O)/c(=C/CCCCCCC)[nH]c(=O)/c1=C/c1ccc(OC)cc1	–	–	–	–	–	–	–	–	5.82	5.54	5.55	5.64	5.96	4.55	5.54	5.66
C=CCn1c(=O)/c(=C/CCCCCC)[nH]c(=O)/c1=C/c1ccc(OC)cc1	–	–	–	–	–	–	–	–	6.05	5.66	5.62	5.80	6.22	5.47	5.70	5.80
C=CCn1c(=O)/c(=C/CC)[nH]c(=O)/c1=C/c1cccc(OC)c1	Not Active	Not Active	Not Active	Not Active	Not Active	Not Active	Not Active	Not Active	–	–	–	–	–	–	–	–
C=CCn1c(=O)/c(=C/CCCCCCCC)[nH]c(=O)/c1=C/c1ccc(OC)cc1	–	–	–	–	–	–	–	–	5.25	5.10	5.00	5.09	5.43	4.58	4.80	4.97
C=CCn1c(=O)/c(=C/CCCCCCCCCCCCCCC)[nH]c(=O)/c1=C/c1cccc(OC)c1	Not Active	Not Active	Not Active	Not Active	Not Active	Not Active	Not Active	Not Active	–	–	–	–	–	–	–	–
C=CCn1c(=O)/c(=C/CCCC)[nH]c(=O)/c1=C/c1ccccc1OC	–	–	–	–	–	–	–	–	5.85	5.37	5.51	5.62	6.05	6.30	5.40	5.48
Cn1c(=O)/c(=C/c2ccccc2)[nH]c(=O)/c1=C/c1ccccc1	–	–	–	–	–	Not Active	–	–	5.54	5.03	5.29	5.31	5.85	–	5.11	5.19
C=CCn1c(=O)/c(=C/CCCCCC)[nH]c(=O)/c1=C/c1cccc(OC)c1	Not Active	Not Active	Not Active	Not Active	Not Active	Not Active	Not Active	Not Active	–	–	–	–	–	–	–	–
C=CCn1c(=O)/c(=C/CCCCCCCCCCC)[nH]c(=O)/c1=C/c1ccc(OC)cc1	Not Active	Not Active	Not Active	Not Active	Not Active	Not Active	Not Active	Not Active	–	–	–	–	–	–	–	–
C=CCn1c(=O)/c(=C/c2cccc(Cl)c2Cl)[nH]c(=O)/c1=C/c1ccccc1OC	–	–	–	–	–	–	–	–	6.05	5.38	5.68	5.80	6.30	5.70	5.64	5.49
C=CCn1c(=O)/c(=C/CCCCCCC)[nH]c(=O)/c1=C/c1cccc(OC)c1	Not Active	Not Active	Not Active	Not Active	Not Active	Not Active	Not Active	Not Active	–	–	–	–	–	–	–	–
C=CCn1c(=O)/c(=C/CCC)[nH]c(=O)/c1=C/c1ccccc1OC	–	Not Active	–	–	–	–	Not Active	–	5.07	–	4.95	4.67	5.19	4.69	–	4.54
C=CCn1c(=O)/c(=C/CCCCCCCCCCCCCCC)[nH]c(=O)/c1=C/c1ccc(OC)cc1	Not Active	Not Active	Not Active	Not Active	Not Active	Not Active	Not Active	Not Active	–	–	–	–	–	–	–	–
C=CCn1c(=O)/c(=C/CCCCCCC)[nH]c(=O)/c1=C/c1ccccc1OC	Not Active	Not Active	Not Active	Not Active	Not Active	Not Active	Not Active	Not Active	–	–	–	–	–	–	–	–
C=CCn1c(=O)/c(=C/CC)[nH]c(=O)/c1=C/c1ccccc1OC	Not Active	Not Active	Not Active	Not Active	Not Active	Not Active	Not Active	Not Active	–	–	–	–	–	–	–	–
C=CCn1c(=O)/c(=C/CCCCCC)[nH]c(=O)/c1=C/c1ccccc1OC	–	–	–	–	–	–	–	–	5.44	4.95	5.03	5.15	5.59	4.97	4.86	5.01
C=CCn1c(=O)/c(=C/CCC)[nH]c(=O)/c1=C/c1ccc(OC)cc1	–	–	–	–	–	–	–	–	5.54	4.88	5.03	5.15	5.66	5.21	4.91	5.08
C=CCn1c(=O)/c(=C/CCCCCCCCC)[nH]c(=O)/c1=C/c1ccccc1OC	–	Not Active	Not Active	Not Active	–	–	Not Active	Not Active	4.98	–	–	–	4.73	5.47	–	–
C=CCn1c(=O)/c(=C/CCCCCCCCCC)[nH]c(=O)/c1=C/c1cccc(OC)c1	Not Active	Not Active	Not Active	Not Active	Not Active	Not Active	Not Active	Not Active	–	–	–	–	–	–	–	–
C=CCn1c(=O)/c(=C/CCCCCCCCC)[nH]c(=O)/c1=C/c1cccc(OC)c1	Not Active	Not Active	Not Active	Not Active	Not Active	Not Active	Not Active	Not Active	–	–	–	–	–	–	–	–
C=CCn1c(=O)/c(=C/CCCCCCCC)[nH]c(=O)/c1=C/c1ccccc1OC	Not Active	Not Active	Not Active	Not Active	Not Active	Not Active	Not Active	Not Active	–	–	–	–	–	–	–	–
C=CCn1c(=O)/c(=C/CCCCCCCCCC)[nH]c(=O)/c1=C/c1ccc(OC)cc1	Not Active	Not Active	Not Active	Not Active	Not Active	Not Active	Not Active	Not Active	–	–	–	–	–	–	–	–
C=CCn1c(=O)/c(=C/CCCCCCCC)[nH]c(=O)/c1=C/c1cccc(OC)c1	Not Active	Not Active	Not Active	Not Active	Not Active	Not Active	Not Active	Not Active	–	–	–	–	–	–	–	–
C=CCn1c(=O)/c(=C/CCCCCCCCCCC)[nH]c(=O)/c1=C/c1ccccc1OC	Not Active	Not Active	Not Active	Not Active	Not Active	Not Active	Not Active	Not Active	–	–	–	–	–	–	–	–
C=CCn1c(=O)/c(=C/CCCCC)[nH]c(=O)/c1=C/c1ccc(OC)cc1	–	–	–	–	–	Not Active	–	–	6.15	5.68	5.64	5.96	6.30	–	5.72	5.77
C=CCn1c(=O)/c(=C/CCCCCCCCCCC)[nH]c(=O)/c1=C/c1cccc(OC)c1	Not Active	Not Active	Not Active	Not Active	Not Active	Not Active	Not Active	Not Active	–	–	–	–	–	–	–	–
C=CCn1c(=O)/c(=C/CCCC)[nH]c(=O)/c1=C/c1cccc(OC)c1	Not Active	Not Active	Not Active	Not Active	Not Active	Not Active	Not Active	Not Active	–	–	–	–	–	–	–	–
